This note sets out measurements from ChEMBL document CHEMBL3526061, “Glucuronidation of edaravone by human liver and kidney microsomes: biphasic kinetics and identification of UGT1A9 as the major UDP-glucuronosyltransferase isoform” (Drug Metab Dispos, 2012).

Holding throughout (assay type): ADME
For data set [1], the target named is T1, UDP-glucuronosyltransferase 2B17 (Homo sapiens, UniProt O75795).
T1 sequence (O75795 whole entry): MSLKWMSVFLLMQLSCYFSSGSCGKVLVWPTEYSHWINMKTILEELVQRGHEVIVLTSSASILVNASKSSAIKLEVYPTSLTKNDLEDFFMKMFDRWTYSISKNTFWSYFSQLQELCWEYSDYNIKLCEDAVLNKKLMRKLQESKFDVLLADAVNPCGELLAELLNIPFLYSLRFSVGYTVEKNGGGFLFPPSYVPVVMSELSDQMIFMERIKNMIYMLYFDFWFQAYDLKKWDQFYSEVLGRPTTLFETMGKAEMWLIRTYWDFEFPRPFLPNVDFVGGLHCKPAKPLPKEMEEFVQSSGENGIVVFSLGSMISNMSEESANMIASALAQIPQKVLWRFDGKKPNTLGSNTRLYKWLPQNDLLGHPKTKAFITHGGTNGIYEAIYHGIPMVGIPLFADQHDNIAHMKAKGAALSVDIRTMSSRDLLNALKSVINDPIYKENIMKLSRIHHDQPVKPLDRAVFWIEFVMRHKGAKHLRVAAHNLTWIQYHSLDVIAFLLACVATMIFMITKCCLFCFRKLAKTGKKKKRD
Description: Activity of human recombinant UGT2B17 expressed in insect cells assessed as enzyme mediated glucuronidation in presence of 5 to 35 uM androsterone by LC-MS/MS method.

Data set [2] concerns the target T2, UDP-glucuronosyltransferase 2B4 (Homo sapiens, UniProt P06133).
T2 sequence (P06133 whole entry): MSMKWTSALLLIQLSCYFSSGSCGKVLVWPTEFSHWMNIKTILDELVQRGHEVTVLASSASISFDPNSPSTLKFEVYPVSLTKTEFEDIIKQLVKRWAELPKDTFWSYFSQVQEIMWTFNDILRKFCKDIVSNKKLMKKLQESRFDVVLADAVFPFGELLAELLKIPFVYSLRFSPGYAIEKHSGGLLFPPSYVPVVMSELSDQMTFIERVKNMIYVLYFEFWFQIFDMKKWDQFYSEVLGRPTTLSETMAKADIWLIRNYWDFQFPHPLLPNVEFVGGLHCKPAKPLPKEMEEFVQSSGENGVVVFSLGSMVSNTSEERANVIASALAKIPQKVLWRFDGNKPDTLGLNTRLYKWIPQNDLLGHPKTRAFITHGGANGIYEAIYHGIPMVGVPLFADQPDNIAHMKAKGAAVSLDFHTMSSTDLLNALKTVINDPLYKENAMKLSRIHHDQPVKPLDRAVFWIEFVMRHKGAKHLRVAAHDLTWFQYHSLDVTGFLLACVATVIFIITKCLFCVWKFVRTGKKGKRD
Description: Activity of human recombinant UGT2B4 expressed in insect cells assessed as enzyme mediated glucuronidation at 500 uM by LC-MS/MS method.

The subject of data set [3] is Liver microsome. The experiment in a line: Drug metabolism in human liver microsomes assessed as drug glucuronidation per mg tissue in presence of BSA by LC-MS/MS method. A general note: Liver microsomes are vesicles of endoplasmic reticulum, rich in cytochrome P450 enzymes.
The target of data set [4] is T3, UDP-glucuronosyltransferase 1A9 (Homo sapiens, UniProt O60656).
T3 sequence (O60656 whole entry): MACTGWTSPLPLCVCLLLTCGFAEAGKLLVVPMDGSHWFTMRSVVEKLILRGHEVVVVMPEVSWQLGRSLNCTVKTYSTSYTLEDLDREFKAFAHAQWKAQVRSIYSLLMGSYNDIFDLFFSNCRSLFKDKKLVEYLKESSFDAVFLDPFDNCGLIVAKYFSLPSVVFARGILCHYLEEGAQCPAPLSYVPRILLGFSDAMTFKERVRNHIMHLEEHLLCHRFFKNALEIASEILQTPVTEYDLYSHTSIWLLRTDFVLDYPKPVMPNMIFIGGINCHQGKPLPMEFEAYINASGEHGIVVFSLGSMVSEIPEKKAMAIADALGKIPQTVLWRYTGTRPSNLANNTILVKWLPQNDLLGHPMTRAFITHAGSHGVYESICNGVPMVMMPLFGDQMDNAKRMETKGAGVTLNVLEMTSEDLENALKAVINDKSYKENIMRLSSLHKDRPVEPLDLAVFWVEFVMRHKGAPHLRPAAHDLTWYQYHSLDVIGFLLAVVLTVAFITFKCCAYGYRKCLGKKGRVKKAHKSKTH
The experiment in a line: Activity of human recombinant UGT1A9 expressed in insect cells assessed as enzyme mediated glucuronidation in presence of 100 to 1000 uM propofol by LC-MS/MS method.

The test system of data set [5] is Liver microsome. The experiment in a line: Drug metabolism in human liver microsomes assessed as drug glucuronidation in presence of 5 to 35 uM androsterone by LC-MS/MS method.
Data set [6] has as its target T4, UDP-glucuronosyltransferase 1A10 (Homo sapiens, UniProt Q9HAW8).
T4 sequence (Q9HAW8 whole entry): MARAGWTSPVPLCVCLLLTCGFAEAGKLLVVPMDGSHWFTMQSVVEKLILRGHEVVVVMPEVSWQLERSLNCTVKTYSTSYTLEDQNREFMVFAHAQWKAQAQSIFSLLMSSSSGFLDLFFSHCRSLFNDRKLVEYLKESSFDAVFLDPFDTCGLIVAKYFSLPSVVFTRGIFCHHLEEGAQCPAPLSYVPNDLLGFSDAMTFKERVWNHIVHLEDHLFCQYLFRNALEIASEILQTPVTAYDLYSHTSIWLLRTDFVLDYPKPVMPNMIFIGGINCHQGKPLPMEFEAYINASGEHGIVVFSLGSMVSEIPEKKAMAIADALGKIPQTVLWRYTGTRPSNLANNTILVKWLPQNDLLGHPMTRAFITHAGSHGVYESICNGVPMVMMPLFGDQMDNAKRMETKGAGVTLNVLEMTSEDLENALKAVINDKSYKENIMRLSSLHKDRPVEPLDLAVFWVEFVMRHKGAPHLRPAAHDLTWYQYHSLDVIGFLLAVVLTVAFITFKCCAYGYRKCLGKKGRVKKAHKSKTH
Description: Activity of human recombinant UGT1A10 expressed in insect cells assessed as enzyme mediated glucuronidation at 500 uM by LC-MS/MS method.

As for `CC1=NN(c2ccccc2)C(=O)C1` [EDARAVONE], the Drug metabolism result is reported as “metabolite_not_detected” in data set [1]; “metabolite_detected” in data set [2]; “metabolite_not_detected” in data set [4]; “metabolite_detected” with Liver microsome [5]; “metabolite_detected” in data set [6]. Moreover, the VmaxH with Liver microsome [3] worked out at 137.9 pmol/min/g. The VmaxL in the data set with Liver microsome [3] came out at 4904 pmol/min/g.
